Results published in ChEMBL document CHEMBL4699558, “Lead optimization of 8-(methylamino)-2-oxo-1,2-dihydroquinolines as bacterial type II topoisomerase inhibitors” (Bioorg Med Chem, 2020).
Values after ≈ are worked out from the molar mass of the structure shown. Values belong to the molecule of their own block, whether it stands above or below them.

Assays:
Staphylococcus aureus [1] = assay: Antibacterial activity against hospital-acquired Methicillin -resistant Staphylococcus aureus ATCC BAA-811 by CLSI method; type: functional
Enterococcus faecalis [2] = assay: Antibacterial activity against vancomycin-resistant Enterococcus faecalis ATCC 51575 by CLSI method; type: functional
Escherichia coli [3] = assay: Potency index, ratio of MIC of 4-(8-(methylamino)-2-oxo-1,2-dihydroquinoline-3-carboxamido)benzoic acid to MIC of compound for antibacterial activity against Escherichia coli ATCC 25922; type: functional
[4] = biological target: DNA gyrase (Escherichia coli) (UniProt P0AES6+P0AES4); assay: Potency index, ratio of IC50 of 4-(8-(methylamino)-2-oxo-1,2-dihydroquinoline-3-carboxamido)benzoic acid to IC50 of compound for inhibition of Escherichia coli DNA gyrase incubated for 60 mins by fluorescence based assay; type: protein-complex assay
Streptococcus pneumoniae [5] = assay: Antibacterial activity against Streptococcus pneumoniae ATCC 49619 by CLSI method; type: functional
Staphylococcus aureus [6] = assay: Antibacterial activity against community-acquired Methicillin -resistant Staphylococcus aureus ATCC BAA-1556 by CLSI method; type: functional
[7] = Inhibition of Escherichia coli topoisomerase IV by measuring relaxation activity incubated for 30 mins by fluorescence based assay
Enterococcus faecium [8] = assay: Antibacterial activity against Enterococcus faecium ATCC 35667 by CLSI method; type: functional
Haemophilus influenzae = assay: Antibacterial activity against Haemophilus influenzae ATCC 43095 by CLSI method; type: functional
DNA gyrase = DNA gyrase (Escherichia coli, UniProt P0AES4+P0AES6); assay: Inhibition of Escherichia coli DNA gyrase by measuring supercoiling activity incubated for 60 mins by fluorescence based assay; type: protein-complex assay
Enterococcus faecalis [9] = assay: Antibacterial activity against Enterococcus faecalis ATCC 29212 by CLSI method; type: functional
Escherichia coli [10] = assay: Antibacterial activity against Escherichia coli ATCC 25922 in presence of PAbetaN by CLSI method; type: functional
Enterococcus faecium [11] = assay: Antibacterial activity against vancomycin-resistant Enterococcus faecium ATCC 51559 by CLSI method; type: functional
Escherichia coli [12] = assay: Antibacterial activity against Escherichia coli ATCC 25922 by CLSI method; type: functional
Streptococcus anginosus = assay: Antibacterial activity against Streptococcus anginosus ATCC 33397 by CLSI method; type: functional
Staphylococcus aureus [13] = assay: Antibacterial activity against Staphylococcus aureus ATCC 29213 by CLSI method; type: functional
Staphylococcus aureus [14] = assay: Antibacterial activity against Methicillin-resistant Staphylococcus aureus by CLSI method; type: functional
[15] = biological target: Voltage-gated inwardly rectifying potassium channel KCNH2 (Homo sapiens, UniProt Q12809); assay: Inhibition of human ERG expressed in CHO cells by Q-patch clamp assay
[16] = Cmax in ICR mouse at 100 mg/kg, sc measured upto 24 hrs by LC-MS analysis; type: ADME, organism-based; parameters: route subcutaneous, dose 100 mg/kg, time 24 hrs; conditions: in vivo
Clostridioides difficile = assay: Antibacterial activity against Clostridioides difficile ATCC 700057 by CLSI method; type: functional
[17] = Cytotoxicity against human HepG2 cells assessed as reduction in cell viability at 10 uM incubated for 48 hrs by CCK-8 assay; conditions: HepG2 cells
[18] = tested on: Peptostreptococcus anaerobius; assay: Antibacterial activity against Peptostreptococcus anaerobius ATCC 27337 by CLSI method; type: functional
Fusobacterium nucleatum = assay: Antibacterial activity against Fusobacterium nucleatum JCM8532 by CLSI method; type: functional
[19] = biological target: T1, Cytoplasmic tyrosine-protein kinase BMX (Homo sapiens) (UniProt P51813); assay: Inhibition of recombinant BMX (unknown origin) at 10 uM using fluorescence-labeled peptide as substrate incubated for 15 mins followed by substrate addition and measured after 90 mins by electrophoretic mobility assay relative to control; conditions: time 105.0 min
T1 sequence (whole entry): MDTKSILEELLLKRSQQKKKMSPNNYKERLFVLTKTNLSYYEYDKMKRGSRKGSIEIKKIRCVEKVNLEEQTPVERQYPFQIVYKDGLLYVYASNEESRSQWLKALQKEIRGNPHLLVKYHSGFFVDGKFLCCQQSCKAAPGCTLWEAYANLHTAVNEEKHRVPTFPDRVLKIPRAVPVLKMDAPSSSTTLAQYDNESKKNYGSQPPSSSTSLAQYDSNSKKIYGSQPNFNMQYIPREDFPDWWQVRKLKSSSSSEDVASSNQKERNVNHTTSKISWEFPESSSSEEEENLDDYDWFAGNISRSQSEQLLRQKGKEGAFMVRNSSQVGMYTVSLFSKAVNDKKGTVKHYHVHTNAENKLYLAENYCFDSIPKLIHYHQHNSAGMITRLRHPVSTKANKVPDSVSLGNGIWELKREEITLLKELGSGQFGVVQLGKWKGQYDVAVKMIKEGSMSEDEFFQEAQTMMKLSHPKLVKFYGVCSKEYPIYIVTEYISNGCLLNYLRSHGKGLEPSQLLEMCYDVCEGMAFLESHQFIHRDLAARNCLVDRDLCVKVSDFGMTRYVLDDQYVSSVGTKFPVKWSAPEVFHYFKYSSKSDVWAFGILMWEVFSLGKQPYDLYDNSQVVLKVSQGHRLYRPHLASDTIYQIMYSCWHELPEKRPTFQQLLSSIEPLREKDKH

[20] = biological target: DNA topoisomerase 2-alpha (Homo sapiens, UniProt P11388); assay: Inhibition of human topoisomerase 2alpha; type: ADME
[21] = tested on: Prevotella melaninogenica; assay: Antibacterial activity against Prevotella melaninogenica JCM6325 by CLSI method; type: functional
[22] = Tmax in ICR mouse at 100 mg/kg, sc measured upto 24 hrs by LC-MS analysis; type: ADME, organism-based; conditions: in vivo
Porphyromonas gingivalis = assay: Antibacterial activity against Porphyromonas gingivalis JCM8525 by CLSI method; type: functional
Bacteroides fragilis = assay: Antibacterial activity against Bacteroides fragilis ATCC 25285 by CLSI method; type: functional
[23] = Cytotoxicity against human HepG2 cells assessed as reduction in cell viability at 50 uM incubated for 48 hrs by CCK-8 assay; conditions: HepG2 cells
Streptococcus pneumoniae [24] = assay: Antibacterial activity against genotype penicillin-resistant Streptococcus pneumoniae by CLSI method; type: functional
[25] = AUC (0 to 24 hrs) in ICR mouse at 100 mg/kg, sc measured upto 24 hrs by LC-MS analysis; type: ADME, organism-based; parameters: route subcutaneous, dose 100 mg/kg, time 24 hrs; conditions: in vivo
Enterococcus = assay: Antibacterial activity against Vancomycin-resistant Enterococcus by CLSI method; type: functional
[26] = Half life in ICR mouse at 100 mg/kg, sc measured upto 24 hrs by LC-MS analysis; type: ADME, organism-based; conditions: in vivo
Escherichia coli [27] = assay: Antibacterial activity against Escherichia coli ATCC 25922 assessed as reduction in bacterial cell growth incubated for 18 hrs by CSLI based broth microdilution method; type: functional
Staphylococcus aureus [28] = assay: Antibacterial activity against Staphylococcus aureus ATCC 29213 assessed as reduction in bacterial cell growth incubated for 18 hrs by CSLI based broth microdilution method; type: functional

Chain of DNA topoisomerase 2-alpha (P11388 whole entry): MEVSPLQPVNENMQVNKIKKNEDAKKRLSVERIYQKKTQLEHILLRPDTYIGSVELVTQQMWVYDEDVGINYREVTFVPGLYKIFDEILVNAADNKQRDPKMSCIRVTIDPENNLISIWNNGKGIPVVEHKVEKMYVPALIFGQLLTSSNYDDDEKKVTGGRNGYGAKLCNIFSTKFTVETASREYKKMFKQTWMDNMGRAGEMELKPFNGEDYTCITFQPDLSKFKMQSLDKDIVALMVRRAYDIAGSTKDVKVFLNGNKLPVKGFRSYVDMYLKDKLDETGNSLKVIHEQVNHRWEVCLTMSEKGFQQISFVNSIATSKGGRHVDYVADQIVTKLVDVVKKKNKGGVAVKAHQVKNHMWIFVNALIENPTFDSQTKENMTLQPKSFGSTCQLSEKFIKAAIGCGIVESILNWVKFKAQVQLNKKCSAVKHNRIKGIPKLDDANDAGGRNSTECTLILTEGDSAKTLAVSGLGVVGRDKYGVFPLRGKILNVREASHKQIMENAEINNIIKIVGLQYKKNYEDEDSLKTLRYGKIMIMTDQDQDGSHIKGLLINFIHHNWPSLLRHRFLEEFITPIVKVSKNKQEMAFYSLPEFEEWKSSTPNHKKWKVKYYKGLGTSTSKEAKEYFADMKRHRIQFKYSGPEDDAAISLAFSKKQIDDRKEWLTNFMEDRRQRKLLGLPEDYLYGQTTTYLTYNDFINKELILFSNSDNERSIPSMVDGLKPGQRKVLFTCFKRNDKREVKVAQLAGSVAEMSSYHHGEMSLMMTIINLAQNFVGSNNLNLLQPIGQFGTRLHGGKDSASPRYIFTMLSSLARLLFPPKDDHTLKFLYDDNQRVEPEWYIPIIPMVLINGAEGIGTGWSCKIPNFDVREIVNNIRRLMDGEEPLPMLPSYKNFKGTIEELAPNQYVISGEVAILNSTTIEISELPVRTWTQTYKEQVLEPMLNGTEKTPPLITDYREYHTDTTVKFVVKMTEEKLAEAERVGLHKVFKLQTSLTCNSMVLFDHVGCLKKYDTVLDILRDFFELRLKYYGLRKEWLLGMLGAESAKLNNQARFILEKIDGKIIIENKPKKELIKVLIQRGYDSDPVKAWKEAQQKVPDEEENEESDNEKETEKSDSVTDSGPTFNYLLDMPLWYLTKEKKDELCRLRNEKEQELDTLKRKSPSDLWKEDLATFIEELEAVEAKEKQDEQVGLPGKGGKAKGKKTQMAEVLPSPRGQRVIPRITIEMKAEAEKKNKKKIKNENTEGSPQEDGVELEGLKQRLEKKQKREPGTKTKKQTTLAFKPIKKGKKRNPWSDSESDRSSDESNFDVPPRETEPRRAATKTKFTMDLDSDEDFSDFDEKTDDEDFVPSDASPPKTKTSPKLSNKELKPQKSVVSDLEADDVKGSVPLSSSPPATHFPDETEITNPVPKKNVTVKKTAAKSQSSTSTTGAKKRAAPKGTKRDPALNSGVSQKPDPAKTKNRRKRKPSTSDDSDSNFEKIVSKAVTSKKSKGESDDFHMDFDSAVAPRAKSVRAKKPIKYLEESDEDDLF
Chain of Voltage-gated inwardly rectifying potassium channel KCNH2 (Q12809 whole entry): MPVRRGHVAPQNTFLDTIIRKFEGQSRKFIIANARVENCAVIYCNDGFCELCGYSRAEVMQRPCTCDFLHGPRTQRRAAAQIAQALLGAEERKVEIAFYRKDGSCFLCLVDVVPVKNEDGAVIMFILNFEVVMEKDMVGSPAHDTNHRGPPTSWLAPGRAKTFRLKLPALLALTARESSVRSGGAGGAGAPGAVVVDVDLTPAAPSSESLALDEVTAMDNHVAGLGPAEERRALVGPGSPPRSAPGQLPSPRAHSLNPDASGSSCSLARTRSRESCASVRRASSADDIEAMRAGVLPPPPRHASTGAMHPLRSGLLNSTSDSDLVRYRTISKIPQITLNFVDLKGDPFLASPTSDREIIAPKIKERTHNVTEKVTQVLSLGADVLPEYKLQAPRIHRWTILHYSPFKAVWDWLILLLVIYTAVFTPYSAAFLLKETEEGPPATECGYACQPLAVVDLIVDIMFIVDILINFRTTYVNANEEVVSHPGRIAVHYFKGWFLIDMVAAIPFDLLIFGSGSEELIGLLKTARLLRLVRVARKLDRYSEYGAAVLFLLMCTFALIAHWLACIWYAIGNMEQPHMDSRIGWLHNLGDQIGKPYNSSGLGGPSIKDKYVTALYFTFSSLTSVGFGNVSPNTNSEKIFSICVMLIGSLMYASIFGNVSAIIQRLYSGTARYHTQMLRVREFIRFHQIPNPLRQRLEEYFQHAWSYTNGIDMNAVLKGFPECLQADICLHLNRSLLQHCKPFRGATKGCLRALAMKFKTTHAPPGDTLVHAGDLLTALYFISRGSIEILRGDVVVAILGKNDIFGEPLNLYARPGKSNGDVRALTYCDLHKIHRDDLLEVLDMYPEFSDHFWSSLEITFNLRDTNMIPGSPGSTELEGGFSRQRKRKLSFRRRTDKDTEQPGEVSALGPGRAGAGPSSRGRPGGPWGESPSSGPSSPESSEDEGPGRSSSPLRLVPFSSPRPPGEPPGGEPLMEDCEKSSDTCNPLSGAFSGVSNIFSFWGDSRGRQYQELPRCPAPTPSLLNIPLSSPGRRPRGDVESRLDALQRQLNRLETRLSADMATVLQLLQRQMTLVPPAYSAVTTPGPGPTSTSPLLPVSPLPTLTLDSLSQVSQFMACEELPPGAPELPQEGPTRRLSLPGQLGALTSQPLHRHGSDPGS

SMILES: CNc1cc(F)cc2cc(C(=O)Nc3ccc(C(=O)O)cc3)c(=O)[nH]c12
- MIC (Staphylococcus aureus [1]): 8 µg/mL (≈ 22.5 µM)
- MIC (Enterococcus faecalis [2]): 0.015 µg/mL (≈ 0.0422 µM)
- Ratio (Escherichia coli [3]): 4
- Ratio IC50 [4]: 5
- MIC (Streptococcus pneumoniae [5]): 0.03 µg/mL (≈ 0.0844 µM)
- MIC (Staphylococcus aureus [6]): 8 µg/mL (≈ 22.5 µM)
- IC50 [7]: 219 nM
- MIC (Enterococcus faecium [8]): 0.03 µg/mL (≈ 0.0844 µM)
- MIC (Haemophilus influenzae): 0.03 µg/mL (≈ 0.0844 µM)
- IC50 (DNA gyrase): 0.36 nM
- MIC (Enterococcus faecalis [9]): 0.015 µg/mL (≈ 0.0422 µM)
- MIC (Escherichia coli [10]): 0.015 µg/mL
- MIC (Enterococcus faecium [11]): 0.015 µg/mL (≈ 0.0422 µM)
- MIC (Escherichia coli [12]): 16 µg/mL (≈ 45 µM)
- MIC (Streptococcus anginosus): 0.06 µg/mL (≈ 0.169 µM)
- MIC (Staphylococcus aureus [13]): 4 µg/mL (≈ 11.3 µM)

SMILES: CNc1cc(F)cc2c(O)c(C(=O)Nc3ccc(C(=O)O)cc3)c(=O)[nH]c12
- MIC50 (Staphylococcus aureus [14]): 0.25 µg/mL (≈ 0.673 µM)
- MIC90 (Staphylococcus aureus [14]): 0.25 µg/mL (≈ 0.673 µM)
- IC50 [15]: > 30000 nM
- MIC (Staphylococcus aureus [1]): 0.5 µg/mL (≈ 1.35 µM)
- Cmax [16]: 12400 ng/mL
- MIC (Clostridioides difficile): 0.25 µg/mL (≈ 0.673 µM)
- MIC (Enterococcus faecalis [2]): 0.002 µg/mL (≈ 0.00539 µM)
- cytotoxicity at 48 h, 10 µM [17]: 7.93%
- MIC [18]: 0.06 µg/mL (≈ 0.162 µM)
- MIC (Fusobacterium nucleatum): 0.12 µg/mL (≈ 0.323 µM)
- inhibition [19]: 29%
- IC50 [20]: > 100000 nM
- MIC (Streptococcus pneumoniae [5]): 0.015 µg/mL (≈ 0.0404 µM)
- MIC (Staphylococcus aureus [6]): 0.25 µg/mL (≈ 0.673 µM)
- MIC [21]: > 32 µg/mL
- Tmax [22]: 0.25 h
- IC50 [7]: 62.9 nM
- MIC (Enterococcus faecium [8]): 0.008 µg/mL (≈ 0.0215 µM)
- MIC (Haemophilus influenzae): ≤ 0.015 µg/mL
- MIC (Porphyromonas gingivalis): 0.25 µg/mL (≈ 0.673 µM)
- MIC (Bacteroides fragilis): 8 µg/mL (≈ 21.5 µM)
- cytotoxicity at 48 h, 50 µM [23]: 25.2%
- IC50 (DNA gyrase): 1.1 nM
- MIC50 (Streptococcus pneumoniae [24]): 0.03 µg/mL (≈ 0.0808 µM)
- MIC90 (Streptococcus pneumoniae [24]): 0.06 µg/mL (≈ 0.162 µM)
- AUC(0-t) at 24 h [25]: 16000 ng·h/mL
- MIC (Enterococcus faecalis [9]): 0.002 µg/mL (≈ 0.00539 µM)
- MIC50 (Enterococcus): 0.008 µg/mL (≈ 0.0215 µM)
- MIC90 (Enterococcus): 0.015 µg/mL (≈ 0.0404 µM)
- MIC (Enterococcus faecium [11]): 0.015 µg/mL (≈ 0.0404 µM)
- MIC (Escherichia coli [12]): 1 µg/mL (≈ 2.69 µM)
- half-life [26]: 6.79 h
- MIC (Streptococcus anginosus): 0.03 µg/mL (≈ 0.0808 µM)
- MIC (Staphylococcus aureus [13]): 0.25 µg/mL (≈ 0.673 µM)

- IC50 [7]: 980 nM
- MIC (Escherichia coli [27]): 64 µg/mL (≈ 190 µM)
- MIC (Escherichia coli [10]): < 0.03 µg/mL
- MIC (Staphylococcus aureus [28]): 16 µg/mL (≈ 47.4 µM)
SMILES: CNc1cccc2cc(C(=O)Nc3ccc(C(=O)O)cc3)c(=O)[nH]c12
